From paper PMC8015083 (ACS Omega, 2021)
Converted amounts (≈) assume the structure as drawn. “And” between values parts separate entries of the source, which are not always exact repeats. Identical values can stand only once. Like-named read-outs stand apart in the source and are kept apart here.

Tests used:
C. neoformans = test: microbe, parasite or virus in culture; format: cell-based, Cryptococcus neoformans; details: for MIC80: Cryptococcus neoformans
C. neoformans KN99 [1] = format: cell-based, Cryptococcus neoformans
M. pachydermatis = test: microbe, parasite or virus in culture; format: cell-based; details: Malassezia pachydermatis, read-out: MIC80 in M. pachydermatis
C. neoformans KN99 [2] = test: microbe, parasite or virus in culture; format: cell-based; details: Cryptococcus neoformans, KN99, 48 h, read-out: C. neo MIC80
[3] = test system: C. neoformans aox1Δ strain; format: cell-based, Cryptococcus neoformans
M. furfur = test: microbe, parasite or virus in culture; format: cell-based; details: Malassezia furfur, read-out: MIC80 in M. furfur
C. neoformans KN99 [4] = format: cell-based, Cryptococcus neoformans; remark: listed apart in the source
[5] = human, in vivo; cited from earlier work

OC(Cn1cncn1)(Cn1cncn1)c1ccc(F)cc1F [FLC, fluconazole]
MIC80 (C. neoformans; read-out: MIC80 alone, FLC): 3 µM (≈ 0.919 µg/mL)

Cc1cc(CC2CCCCC2)n(O)c(=O)c1 [SLU-2321]
rescue of inhibition by exogenous copper (C. neoformans KN99 [1]): only partially rescued
rescue of inhibition by exogenous iron (C. neoformans KN99 [1]): fully rescued
rescue of inhibition by zinc (C. neoformans KN99 [1]): did not rescue
FICI (C. neoformans): 0.63
FICI in combination with CPO (C. neoformans): 0.51

C[C@@H]1[C@H](O)[C@@H](C)/C=C/C=C/C=C/C=C/C=C/C=C/C=C/[C@H](O[C@@H]2O[C@H](C)[C@@H](O)[C@H](N)[C@@H]2O)C[C@@H]2O[C@](O)(C[C@@H](O)C[C@@H](O)[C@H](O)CC[C@@H](O)C[C@@H](O)CC(=O)O[C@H]1C)C[C@H](O)[C@H]2C(=O)O [AMB, amphotericin B]
MIC80 (C. neoformans; read-out: MIC80 alone, AMB): 1.5 µM (≈ 1.39 µg/mL)

Cc1c(O)c(=O)ccn1C [DFP, deferiprone]
MIC80 alone, DFP (C. neoformans): 200 µM (≈ 27.8 µg/mL)
MIC80 (C. neoformans; read-out: MIC80 alone, DFP): > 200 µM

Cc1cc(-c2ccc(S(=O)(=O)O)cc2)c2ccc3c(-c4ccc(S(=O)(=O)O)cc4)cc(C)nc3c2n1 [BCS, bathocuproinedisulfonic acid]
MIC80 alone, BCS (C. neoformans): >200 µM

C=C(C)[C@H]1Cc2c(ccc3c2O[C@@H]2COc4cc(OC)c(OC)cc4[C@@H]2C3=O)O1 [rotenone]
MIC80 (C. neoformans; read-out: MIC80 alone, rotenone): 15 µM (≈ 5.92 µg/mL)

O=C(NO)c1ccccc1O [SHAM, salicylhydroxamic acid]
MIC80 (C. neoformans; read-out: MIC80 alone, SHAM): 2000 µM (≈ 306 µg/mL)

Cc1ccc2ccc3ccc(C)nc3c2n1 [neocuproine]
MIC80 (C. neoformans; read-out: MIC80 alone, neocuproine): 0.25 µM (≈ 0.0521 µg/mL)

Cc1cc(C2CCCCC2)n(O)c(=O)c1 [CPO, Ciclopirox olamine]
MIC80 (M. pachydermatis): ~25 µM (≈ 5.18 µg/mL)
MIC (C. neoformans KN99 [2]): 0.87 µM and 0.18 µg/mL
MIC80 in aox1Δ strain compared with wild type [3]: no difference in sensitivity
MIC80 (M. furfur): ~25 µM (≈ 5.18 µg/mL)
killing of the cells (C. neoformans KN99 [4]): 99.9%
tolerability of oral dosing [5]: well tolerated
rescue of inhibition by exogenous copper (C. neoformans KN99 [1]): partially rescued
rescue of inhibition by exogenous iron (C. neoformans KN99 [1]): fully rescued
rescue of inhibition by zinc (C. neoformans KN99 [1]): did not rescue
FICI (C. neoformans): 0.75

Cc1cc(Cc2ccc(Cl)cc2)n(O)c(=O)c1 [SLU-2707]
rescue of inhibition by exogenous copper (C. neoformans KN99 [1]): did not rescue
rescue of inhibition by exogenous iron (C. neoformans KN99 [1]): fully rescued
rescue of inhibition by zinc (C. neoformans KN99 [1]): did not rescue
FICI (C. neoformans): 0.63
FICI in combination with CPO (C. neoformans): 0.37

CO/C(=C/C(N)=O)[C@H](C)[C@H](/C=C/c1csc(-c2csc([C@@H](C)/C=C/C=C/C(C)C)n2)n1)OC [myxothiazol]
MIC80 alone, myxothiazol (C. neoformans): 5 µM (≈ 2.44 µg/mL)

O=C(O)CC(=O)O [malonate]
MIC80 (C. neoformans; read-out: MIC80 alone, malonate): 25 µM (≈ 2.6 µg/mL)
